Article PMC8402917 (Viruses, 2021)

Molecular target: T1, SARS-CoV-2 3CLpro (3CL protease, main protease) (Severe acute respiratory syndrome coronavirus 2, UniProt P0DTD1)
T1 construct: gene rep
Test: biochemical

SMILES: CC1=C(/C=C/C(C)=C/C=C/C(C)=C/C(=O)O)C(C)(C)CCC1 [all-trans retinoic acid]
- IC50: 24.7 ± 1.65 µM
